Measurements as given in PubChem BioAssay (NCI).
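Growth conditions: 96-well plates. Treatment: test compound, 48 hours, 5 concentrations. Analysis: linear interpolation between bracketing concentrations; unreached endpoints set to highest concentration. The concentration for full growth arrest is given as TGI.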

Tests used:
Experiment in all cases: DTP human tumour cell line panel, 48 h
RPMI-8226 leukemia = test system: RPMI-8226 leukemia
MALME-3M melanoma = test system: MALME-3M melanoma
NCI-H226 lung = test system: NCI-H226 lung
SK-MEL-28 melanoma = test system: SK-MEL-28 melanoma
786-0 renal = test system: 786-0 renal
UACC-62 melanoma = test system: UACC-62 melanoma
SNB-19 CNS = test system: SNB-19 CNS
TK-10 renal = test system: TK-10 renal
NCI/ADR-RES ovarian = test system: NCI/ADR-RES ovarian
HT29 colon = test system: HT29 colon

Measured: TGI

CNc1ccc(Cl)cc1S(=O)(=O)c1ccccc1[N+](=O)[O-]
> 100 µM: RPMI-8226 leukemia | MALME-3M melanoma | NCI-H226 lung | SK-MEL-28 melanoma | 786-0 renal | UACC-62 melanoma | SNB-19 CNS | TK-10 renal | NCI/ADR-RES ovarian | HT29 colon

CC(C)C1CC(CO)(CNc2cc(Cl)nc(N)n2)C1 (stereo not given)
> 100 µM: RPMI-8226 leukemia | MALME-3M melanoma | NCI-H226 lung | SK-MEL-28 melanoma | 786-0 renal | UACC-62 melanoma | SNB-19 CNS | TK-10 renal | NCI/ADR-RES ovarian | HT29 colon

CC(=O)CC1(C)OC(N)=C(C#N)C1(C#N)C#N (stereo not given)
> 100 µM: RPMI-8226 leukemia | MALME-3M melanoma | NCI-H226 lung | SK-MEL-28 melanoma | 786-0 renal | UACC-62 melanoma | SNB-19 CNS | TK-10 renal | NCI/ADR-RES ovarian | HT29 colon

CCCCCCCCCCCCCCCCOCC(Cl)COP(=O)(O)OP(=O)(O)OCC1OC(n2cnc3c(N)ncnc32)C(O)C1O (stereo not given)
> 100 µM: RPMI-8226 leukemia | MALME-3M melanoma | NCI-H226 lung | SK-MEL-28 melanoma | 786-0 renal | UACC-62 melanoma | SNB-19 CNS | TK-10 renal | NCI/ADR-RES ovarian | HT29 colon
